Read-outs that look alike come from different tables or passages of the source.
How the values were obtained:
Assay in all cases: Test C pre-/postemergence greenhouse herbicide test
Format in all cases: in vivo
[1] = system: ryegrass, Italian (Italian ryegrass, Lolium multiflorum); conditions: Lolium multiflorum, Ryegrass, Italian, read-out: Plant response rating; for pest or weed control at 31 g/ha: 31 g ai/ha; for pest or weed control at 62 g/ha: 62 g ai/ha; for pest or weed control at 125 g/ha: 125 g ai/ha; for pest or weed control at 250 g/ha: 250 g ai/ha
Procedure, shortened: (§1)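 Seeds sown in loam soil–sand blend were treated preemergence; plants at 2 to 18 cm (1- to 4-leaf stage) in peat-based medium were treated postemergence. Test chemicals were formulated in a non-phytotoxic solvent mixture with surfactant. After 13 to 15 d in greenhouse, injury was rated visually versus controls, 0 (no effect) to 100 (complete control).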

[2] = system: kochia (Kochia scoparia); conditions: Postemergence
Procedure, shortened: as §1

[3] = system: foxtail, giant (giant foxtail, Setaria faberii); conditions: Setaria faberi, Foxtail, Giant, read-out: Plant response rating; for pest or weed control at 31 g/ha: 31 g ai/ha; for pest or weed control at 62 g/ha: 62 g ai/ha; for pest or weed control at 125 g/ha: 125 g ai/ha; for pest or weed control at 250 g/ha: 250 g ai/ha
Procedure, shortened: as §1

[4] = system: corn (Zea mays); conditions: Zea mays, Corn, read-out: Plant response rating; for plant injury at 31 g/ha: 31 g ai/ha; for plant injury at 62 g/ha: 62 g ai/ha; for plant injury at 125 g/ha: 125 g ai/ha; for plant injury at 250 g/ha: 250 g ai/ha
Procedure, shortened: as §1

[5] = system: waterhemp (common waterhemp, Amaranthus rudis); conditions: Waterhemp
Procedure, shortened: as §1

[6] = system: velvetleaf (Abutilon theophrasti); conditions: Abutilon theophrasti, Velvetleaf, read-out: Plant response rating; for pest or weed control at 62 g/ha: 62 g ai/ha; for pest or weed control at 125 g/ha: 125 g ai/ha; for pest or weed control at 250 g/ha: 250 g ai/ha
Procedure, shortened: as §1

[7] = system: morningglory (Ipomoea coccinea); conditions: Morningglory
Procedure, shortened: as §1

[8] = system: lambsquarters (Chenopodium album)
Procedure, shortened: as §1

[9] = system: galium (catchweed bedstraw, Galium aparine); conditions: Galium, read-out: Plant response rating; for pest or weed control at 31 g/ha: 31 g ai/ha; for pest or weed control at 62 g/ha: 62 g ai/ha; for pest or weed control at 125 g/ha: 125 g ai/ha; for pest or weed control at 250 g/ha: 250 g ai/ha
Procedure, shortened: as §1

[10] = system: nutsedge, yellow (yellow nutsedge, Cyperus esculentus); conditions: Cyperus, Nutsedge, Yellow, read-out: Plant response rating; for pest or weed control at 31 g/ha: 31 g ai/ha; for pest or weed control at 62 g/ha: 62 g ai/ha; for pest or weed control at 125 g/ha: 125 g ai/ha; for pest or weed control at 250 g/ha: 250 g ai/ha
Procedure, shortened: as §1

[11] = system: blackgrass (Alopecurus myosuroides); conditions: Alopecurus myosuroides, Blackgrass, read-out: Plant response rating; for pest or weed control at 31 g/ha: 31 g ai/ha; for pest or weed control at 62 g/ha: 62 g ai/ha; for pest or weed control at 125 g/ha: 125 g ai/ha; for pest or weed control at 250 g/ha: 250 g ai/ha
Procedure, shortened: as §1

[12] = system: soybean (Glycine max); conditions: Glycine max, Soybean, read-out: Plant response rating; for plant injury at 62 g/ha: 62 g ai/ha; for plant injury at 125 g/ha: 125 g ai/ha; for plant injury at 250 g/ha: 250 g ai/ha
Procedure, shortened: as §1

[13] = post-emergence, Postemergence, 31 g ai/ha

COc1cc(=O)n(-c2ccc(F)cc2)nc1Cc1ccnc(C(F)(F)F)c1 [Compound 17, 2-(4-fluorophenyl)-5-methoxy-6-[[2-(trifluoromethyl)-4-pyridinyl]methyl]-3 (2H)-pyridazinone]
15%: plant injury at 62 g/ha ([4]; post-emergence, Postemergence) | plant injury at 125 g/ha ([4]; post-emergence, Postemergence) | plant injury at 250 g/ha ([4]; post-emergence, Postemergence)
70: Plant response rating ([7]; Postemergence, 250 g ai/ha)
60: Plant response rating ([5]; Postemergence, 31 g ai/ha)
30%: pest or weed control at 125 g/ha ([6]; post-emergence, Postemergence) | pest or weed control at 62 g/ha ([10]; pre-emergence, Preemergence)
98: Plant response rating ([8]; Preemergence, 250 g ai/ha)
55%: pest or weed control at 125 g/ha ([10]; pre-emergence, Preemergence) | plant injury at 62 g/ha ([12]; pre-emergence, Preemergence)
50%: pest or weed control at 31 g/ha ([11]; pre-emergence, Preemergence)
85%: plant injury at 125 g/ha ([4]; pre-emergence, Preemergence) | pest or weed control at 250 g/ha ([9]; post-emergence, Postemergence)
65%: plant injury at 62 g/ha ([4]; pre-emergence, Preemergence)
100: Plant response rating ([5]; Preemergence, 62 g ai/ha) | Plant response rating ([5]; Preemergence, 125 g ai/ha) | Plant response rating ([5]; Preemergence, 250 g ai/ha) | Plant response rating ([7]; Preemergence, 125 g ai/ha) | Plant response rating ([7]; Preemergence, 250 g ai/ha)
80%: pest or weed control at 62 g/ha ([11]; pre-emergence, Preemergence) | plant injury at 31 g/ha [12, 13]
80: Plant response rating ([2]; 31 g ai/ha)
65: Plant response rating ([7]; Postemergence, 31 g ai/ha) | Plant response rating ([7]; Postemergence, 62 g ai/ha) | Plant response rating ([7]; Postemergence, 125 g ai/ha)
60%: pest or weed control at 31 g/ha ([9]; post-emergence, Postemergence)
75%: pest or weed control at 250 g/ha ([1]; pre-emergence, Preemergence) | pest or weed control at 62 g/ha ([6]; pre-emergence, Preemergence) | pest or weed control at 125 g/ha ([9]; post-emergence, Postemergence) | pest or weed control at 250 g/ha ([10]; pre-emergence, Preemergence)
10%: pest or weed control at 62 g/ha ([1]; pre-emergence, Preemergence) | pest or weed control at 31 g/ha ([3]; post-emergence, Postemergence) | pest or weed control at 62 g/ha ([3]; post-emergence, Postemergence) | plant injury at 31 g/ha ([4]; post-emergence, Postemergence) | pest or weed control at 125 g/ha ([10]; post-emergence, Postemergence) | pest or weed control at 250 g/ha ([10]; post-emergence, Postemergence)
95: Plant response rating ([8]; Preemergence, 31 g ai/ha) | Plant response rating ([8]; Preemergence, 62 g ai/ha) | Plant response rating ([8]; Preemergence, 125 g ai/ha)
95%: pest or weed control at 250 g/ha ([11]; pre-emergence, Preemergence) | plant injury at 125 g/ha ([12]; pre-emergence, Preemergence)
100%: pest or weed control at 31 g/ha ([3]; pre-emergence, Preemergence) | pest or weed control at 62 g/ha ([3]; pre-emergence, Preemergence) | pest or weed control at 125 g/ha ([3]; pre-emergence, Preemergence) | pest or weed control at 250 g/ha ([3]; pre-emergence, Preemergence) | plant injury at 250 g/ha ([4]; pre-emergence, Preemergence) | pest or weed control at 125 g/ha ([6]; pre-emergence, Preemergence) | pest or weed control at 250 g/ha ([6]; pre-emergence, Preemergence) | pest or weed control at 31 g/ha ([9]; pre-emergence, Preemergence) | pest or weed control at 62 g/ha ([9]; pre-emergence, Preemergence) | pest or weed control at 125 g/ha ([9]; pre-emergence, Preemergence) | pest or weed control at 250 g/ha ([9]; pre-emergence, Preemergence)
75: Plant response rating ([8]; Postemergence, 31 g ai/ha) | Plant response rating ([8]; Postemergence, 62 g ai/ha)
20%: pest or weed control at 125 g/ha ([3]; post-emergence, Postemergence) | pest or weed control at 31 g/ha [6, 13] | pest or weed control at 62 g/ha ([6]; post-emergence, Postemergence) | pest or weed control at 31 g/ha ([10]; pre-emergence, Preemergence)
45%: pest or weed control at 250 g/ha ([3]; post-emergence, Postemergence) | plant injury at 31 g/ha ([4]; pre-emergence, Preemergence) | pest or weed control at 250 g/ha ([6]; post-emergence, Postemergence)
90: Plant response rating ([2]; 62 g ai/ha) | Plant response rating ([2]; 125 g ai/ha) | Plant response rating ([2]; 250 g ai/ha) | Plant response rating ([8]; Postemergence, 125 g ai/ha) | Plant response rating ([8]; Postemergence, 250 g ai/ha)
98%: plant injury at 250 g/ha ([12]; pre-emergence, Preemergence)
5%: pest or weed control at 31 g/ha ([1]; post-emergence, Postemergence) | pest or weed control at 62 g/ha ([1]; post-emergence, Postemergence) | pest or weed control at 125 g/ha ([1]; post-emergence, Postemergence) | pest or weed control at 250 g/ha ([1]; post-emergence, Postemergence) | pest or weed control at 31 g/ha ([1]; pre-emergence, Preemergence) | pest or weed control at 31 g/ha ([10]; post-emergence, Postemergence) | pest or weed control at 62 g/ha ([10]; post-emergence, Postemergence) | pest or weed control at 31 g/ha ([11]; post-emergence, Postemergence) | pest or weed control at 62 g/ha ([11]; post-emergence, Postemergence) | pest or weed control at 125 g/ha ([11]; post-emergence, Postemergence) | pest or weed control at 250 g/ha ([11]; post-emergence, Postemergence)
70%: pest or weed control at 125 g/ha ([1]; pre-emergence, Preemergence) | pest or weed control at 62 g/ha ([9]; post-emergence, Postemergence)
85: Plant response rating ([5]; Postemergence, 125 g ai/ha) | Plant response rating ([5]; Postemergence, 250 g ai/ha) | Plant response rating ([7]; Preemergence, 31 g ai/ha) | Plant response rating ([7]; Preemergence, 62 g ai/ha)
90%: pest or weed control at 125 g/ha ([11]; pre-emergence, Preemergence) | plant injury at 62 g/ha ([12]; post-emergence, Postemergence) | plant injury at 125 g/ha ([12]; post-emergence, Postemergence) | plant injury at 250 g/ha ([12]; post-emergence, Postemergence)
